Results as given in article PMC7004151, “Synthesis and Structure‐Activity Relationships of N‐(4‐Benzamidino)‐Oxazolidinones: Potent and Selective Inhibitors of Kallikrein‐Related Peptidase 6” (Chemmedchem, 2019).
Where two headings read alike, the source gives them in different places. Values belong to the molecule of their own block, whether it stands above or below them.

Columns and labels:
[1] = molecular target: T1, KLK6 (Homo sapiens, UniProt Q92876); test: SPR binding assay (Biacore T200, KLK6 immobilized on CM5 chip); settings: read-out: KLK6 pKD (converted)
Protocol: High Throughput Screen: The European Lead Factory library of ∼350,000 compounds was used for high throughput screening at the Pivot Park Screening Center facilities in Oss, The Netherlands. HighRes Biosolutions robotic infrastructure using Cellario software was programmed to perform screening of 281 1536‐well plates. Using the primary KLK6 fluorescent intensity (FI) assay (see below), 7794 compounds having a Z‐score≤‐4 were selected for further follow‐up. An additional set of compounds was added based on Bayesian modeling to include potential false negatives in the hit confirmation. […] Upon testing of these compounds using SPR and LC‐MS, a qualified hit list (QHL) was registered containing 50 compounds. For SPR, Biacore T200 was used and KLK6 was immobilized onto a CM5 chip. 226 test compounds were screened at 4 concentrations: 20, 4, 0.8 and 0.16 μM in running buffer: 50 mM Tris‐HCl, 1 mM EDTA pH 7.5, 150 mM NaCl, 0.05 % Tween 20, 3 % DMSO at 25 °C. Control injections of 5 μM 1 were used throughout the screen to ensure that KLK6 was stable and had not been blocked by potential irreversible binders/denaturants. An 8 point 1 in 3 dilution series of 1 (50 μM to 0.02 μM) was also applied at the beginning and end of each screening day.

[2] = molecular target: T1, KLK6; test: KLK6 enzymatic inhibition assay (fluorogenic Boc-Phe-Ser-Arg-AMC substrate); type: biochemical; parameters: made in house; settings: for IC50: read-out: KLK6 pIC50 (converted)
Protocol: Using our previously published KLK6 assay format,21 we performed a HTS with the European Lead Factory (ELF),22 and tested ∼350,000 substances at 10 μM for their ability to reduce KLK6‐catalyzed hydrolysis of the fluorogenic Boc‐Phe‐Ser‐Arg‐AMC peptide.
High Throughput Screen: The European Lead Factory library of ∼350,000 compounds was used for high throughput screening at the Pivot Park Screening Center facilities in Oss, The Netherlands. […] For SPR, Biacore T200 was used and KLK6 was immobilized onto a CM5 chip. […] An 8 point 1 in 3 dilution series of 1 (50 μM to 0.02 μM) was also applied at the beginning and end of each screening day.
Enzyme inhibition assays: All chemicals were purchased from Sigma Aldrich (Gillingham, UK) unless otherwise stated.

[3] = molecular target: KLK4 (Homo sapiens, UniProt Q9Y5K2); test: KLK4 inhibition (selectivity); type: biochemical; settings: read-out: KLK4 pIC50 (converted)
Sequence of KLK4 (Q9Y5K2 31-254, species assumed): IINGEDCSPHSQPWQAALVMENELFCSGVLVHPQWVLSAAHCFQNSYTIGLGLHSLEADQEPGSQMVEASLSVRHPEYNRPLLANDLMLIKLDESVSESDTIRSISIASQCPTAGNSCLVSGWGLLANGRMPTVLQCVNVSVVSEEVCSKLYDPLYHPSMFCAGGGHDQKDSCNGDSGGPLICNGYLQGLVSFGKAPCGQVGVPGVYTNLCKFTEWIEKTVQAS
Description: Table 3 Activity of synthesized inhibitors against KLK6 and related proteases. | column: KLK4^a

[4] = molecular target: T2, KLK7 (Homo sapiens, UniProt P49862); test: KLK7 enzyme inhibition assay; type: biochemical; settings: read-out: KLK7 pIC50 (converted)
T2 construct: purchased 2B scientific
T2 sequence (P49862 30-253, species assumed): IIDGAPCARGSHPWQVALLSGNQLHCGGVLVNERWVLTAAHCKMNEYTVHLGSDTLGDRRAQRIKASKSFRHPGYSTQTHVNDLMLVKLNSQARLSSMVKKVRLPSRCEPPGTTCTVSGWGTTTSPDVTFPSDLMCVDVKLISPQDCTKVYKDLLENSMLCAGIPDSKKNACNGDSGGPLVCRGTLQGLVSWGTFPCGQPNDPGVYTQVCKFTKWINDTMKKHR
Protocol: (§1) Enzyme inhibition assays: All chemicals were purchased from Sigma Aldrich (Gillingham, UK) unless otherwise stated. All experiments were conducted in 384 well black, low volume microplates (Greiner 784076) with a final volume of 20 μL and compounds were dispensed into assay plates using an ECHO 550 acoustic dispenser (Labcyte). KLK6 (5 nM) (prepared as in ref. 21) was incubated with test compounds for 30 min at room temperature in assay buffer (50 mM Tris, pH 7.5, 150 mM NaCl, 1 mM EDTA, 0.05 % tween 20, 0.1 % bovine serum albumin (BSA), 1 mM dithiothreitol (DTT)) before the reaction was started by addition of 20 μM Boc‐Phe‐Ser‐Arg‐AMC substrate (Bachem). Fluorescence intensity was read at ex/em 355/460 following incubation for 2 h in the dark at room temperature.
(§2) Assays using KLK7 and KLK8 (2B scientific) were conducted in the same manner as for KLK6 with the following exceptions. Both KLK7 and KLK8 required activation before assaying. KLK7 was combined with an equal volume of 20 μg/ml thermolysin (R&D systems) in activation buffer (50 mM Tris, pH 7.5, 10 mM CaCl2, 150 mM NaCl and 0.05 % Brij‐L23) and incubated at 37 °C for 2 h, the reaction was stopped with the addition of 100 mM EDTA in stop solution (50 mM Tris, 150 mM NaCl, pH 8.5). KLK8 was combined with an equal volume of 0.4 mU/mL lysyl endopeptidase (Alpha laboratories) in activation buffer (50 mM Tris, pH 8.0) and incubated at 37 °C for 30 min. Activated KLK7 (40 nM) and KLK8 (25 nM) were assayed with 40 μM Mca‐RPKPVE‐Nval‐WRK(Dnp)‐NH2 fluorogenic MMP substrate (R&D systems) and 25 μM Boc‐V‐P‐R‐AMC substrate (R&D systems), respectively.

[5] = molecular target: T3, KLK8 (Homo sapiens, UniProt O60259); test: KLK8 enzyme inhibition assay; type: biochemical; settings: read-out: KLK8 pIC50 (converted)
T3 construct: purchased 2B scientific
T3 sequence (O60259 33-260): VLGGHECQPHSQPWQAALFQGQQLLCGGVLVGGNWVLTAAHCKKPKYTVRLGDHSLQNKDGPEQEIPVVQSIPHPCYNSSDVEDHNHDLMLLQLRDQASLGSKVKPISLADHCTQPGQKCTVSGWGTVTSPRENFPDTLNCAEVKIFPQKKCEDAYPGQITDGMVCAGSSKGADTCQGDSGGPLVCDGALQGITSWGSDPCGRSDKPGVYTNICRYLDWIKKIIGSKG
Protocol: as §1, §2

[6] = molecular target: T4, Human trypsin (Homo sapiens, UniProt P07477); test: Trypsin enzyme inhibition assay; type: biochemical; settings: read-out: Trypsin pIC50 (converted)
T4 construct: purchased Polymun Scientific
Protocol: Human thrombin was purchased from Biopur. Human trypsin was purchased from Polymun Scientific. Human Factor Xa was purchased from Enzo Life Sciences. […] Fluorescence intensity was then read at ex/em 485/535 following incubation for 1 h at room temperature (thrombin and factor Xa) or 20 min (trypsin).

[7] = molecular target: T5, Human thrombin (Homo sapiens, UniProt P00734); test: Thrombin enzyme inhibition assay; type: biochemical; settings: read-out: Thrombin pIC50 (converted)
T5 construct: Human thrombin was purchased from Biopur; purchased Biopur
Protocol: (§3) Human thrombin was purchased from Biopur. Human trypsin was purchased from Polymun Scientific. Human Factor Xa was purchased from Enzo Life Sciences. Thrombin (20 nM), trypsin (0.000015 %) or Factor Xa (10 nM) were assayed in a similar manner to the KLKs but were incubated with compound for 20 min at room temperature in assay buffer (50 mM Tris HCl, pH 7.6, 100 mM NaCl, 1 mg/ml CHAPS, 0.05 % bovine serum albumin (BSA), 1 mM dithiothreitol (DTT)) before the addition of 5 μM, 2.5 μM or 1.5 μM Rhodamine 110 substrate (Cambridge bioscience ltd) respectively. Fluorescence intensity was then read at ex/em 485/535 following incubation for 1 h at room temperature (thrombin and factor Xa) or 20 min (trypsin).

[8] = molecular target: T6, Human Factor Xa (Homo sapiens, UniProt P00742); test: Factor Xa enzyme inhibition assay; type: biochemical; settings: read-out: Factor Xa pIC50 (converted)
T6 construct: Human Factor Xa was purchased from Enzo Life Sciences; purchased Enzo Life Sciences
T6 sequence (P00742 235-488 limits assumed): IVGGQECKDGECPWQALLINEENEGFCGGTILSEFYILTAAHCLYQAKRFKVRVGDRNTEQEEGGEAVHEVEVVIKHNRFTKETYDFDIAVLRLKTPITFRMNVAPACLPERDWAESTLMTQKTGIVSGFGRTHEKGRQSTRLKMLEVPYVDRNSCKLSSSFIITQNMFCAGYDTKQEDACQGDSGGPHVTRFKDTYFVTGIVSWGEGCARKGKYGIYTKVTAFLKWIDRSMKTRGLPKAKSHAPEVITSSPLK
T6 sequence (P00742 41-179 partner limits assumed): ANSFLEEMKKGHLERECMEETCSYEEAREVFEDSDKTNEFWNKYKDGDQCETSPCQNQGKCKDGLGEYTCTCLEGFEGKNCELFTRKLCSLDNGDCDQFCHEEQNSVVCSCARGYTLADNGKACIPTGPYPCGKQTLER
Protocol: as §3

[9] = system: KLK6; settings: cited from earlier work
[10] = system: HCT116 cells; test: HCT116 Matrigel invasion assay; type: cell-based; settings: after 24 h; 9 at multiple concentrations; 32 at 50 nM and 500 nM
Protocol: Figure 5 HCT116 cells were treated with 9 or 32 at the indicated concentrations and plated on Matrigel®‐coated filters. The upper chamber contained serum‐free medium, while the lower chamber contained 10 % fetal bovine serum. After 24 h, the number of invading cells was measured optically. (A) This figure is one representative example of four biological replicates, each with similar outcomes. Error bars are SEM. Technical replicates: DMSO and 9 at 5 nM (n=3); 9 at 50 and 500 nM and 32 at all concentrations (n=6). Statistical significance was calculated using an unpaired two‐tailed t‐test. n.s=p≥0.05; **=p<0.01; ***=p<0.001. (B) Representative images (Scale bar, […]) of stained invaded cells outside of the inserts 24 h hours after treatment with 9, 32, or DMSO solvent control at the indicated concentrations. Phase contrast images were taken with EVOS FL Cell imagine system FL Auto microscope (Bio‐Rad).
Invasion assay: The HCT116 colorectal adenocarcinoma cell line (ATCC® CCL‐247™) was maintained in Dulbecco's Modified Eagle Medium (DMEM) with […] glucose, L‐glutamine w/o sodium pyruvate, supplemented with 10 % FBS and 1 % penicillin/streptomycin. […] The samples were transferred to a new 96 well plate and read at 560 nm on a Synergy 2 Multi‐Detection Microplate Reader (Bio‐Tek Instruments, Inc., Winooski, VT).

[11] = system: HCT116 cells; test: HCT116 cell growth and viability; type: cell-based; settings: at the tested concentrations (data not shown)
Description: We have previously shown that knockdown of KLK6 reduces migration and invasion of HCT116 cells in vitro.13 In order to test whether this effect could be recapitulated with small molecule KLK6 inhibitors, we measured the ability of 32 to reduce invasion of HCT116 cells. […] HCT116 cell growth and viability was not altered upon treatment with compounds 9 and 32 at the tested concentrations (data not shown).

[12] = HTS library sample, primary dose-response enzymatic inhibition assay
[13] = resynthesized stereoisomers, enzymatic inhibition assay (Table 2)
[14] = synthesized inhibitors (Table 3), 8.6 = assay limit

Kd [1]: 7.94 µM
IC50 [2, 12]: 7.94 µM
Compound: CCN(CC)C(=O)c1cccc(OCC2CN(c3ccc(C(=N)N)cc3)C(=O)O2)c1 (centres unmarked) [Compound 8]

Kd [1]: 20 µM
IC50 [2, 12]: 1.58 µM
Compound: CCOC(=O)C[S+]([O-])CC1CN(c2ccc(C(=N)N)cc2)C(=O)O1 (centres unmarked) [Compound 7]

Kd [1]: 0.1 µM
IC50 [3]: 7.94 µM
IC50 [4]: > 20 µM
IC50 [5]: 10 µM
IC50 [6]: 5.01 µM
IC50 [7]: > 20 µM
IC50 [8]: > 20 µM
IC50 [2, 12]: 0.0631 µM
LipE ([2]; LipE=pIC50 – logP (KLK6 pIC50, ALogP)): 4.79
IC50 [2, 13]: 0.251 µM
IC50 [2, 14]: 0.251 µM
Compound: COc1cccc([C@H](C)NC(=O)[C@H]2CN(c3ccc(C(=N)N)cc3)C(=O)O2)c1 [Compound 5, (5R)‐3‐(4‐carbamimidoylphenyl)‐N‐[(S)‐1‐(3‐methoxyphenyl)ethyl]‐2‐oxooxazolidine‐5‐carboxamide]

Compound: NCc1ccc(NC(=O)c2c([O-])ccc[n+]2Cc2nccn2Cc2ccccc2)cc1 [Compound 1]
IC50 ([9]; published KLK6 inhibitors ref 18): 1.8 µM

IC50 [2, 13]: > 20 µM
Compound: COc1cccc([C@@H](C)NC(=O)[C@@H]2CN(c3ccc(C(=N)N)cc3)C(=O)O2)c1 [Compound 9]
invasion of HCT116 cells [10]: no significant effect
HCT116 cell growth and viability [11]: not altered

Compound: O=C(Oc1cc(Cl)ccc1Cl)c1cc2cc(Cl)ccc2oc1=O [Compound 4]
kinact/Ki ([9]; covalent coumarin-based suicide inhibitor ref 20): 131 ± 13 M⁻¹ s⁻¹

IC50 [3]: 0.631 µM
IC50 [4]: > 20 µM
IC50 [5]: 1 µM
IC50 [6]: 0.794 µM
IC50 [7]: > 20 µM
IC50 [8]: > 20 µM
IC50 [2, 14]: 0.0126 µM
Compound: C[C@H](NC(=O)[C@H]1CN(c2ccc(C(=N)N)cc2)C(=O)O1)c1cccc2ccccc12 [Compound 29, (5R)‐3‐(4‐carbamimidoylphenyl)‐N‐((S)‐1‐(naphthalen‐1‐yl)ethyl)‐2‐oxooxazolidine‐5‐carboxamide]

Kd [1]: 12.6 µM
IC50 [2, 12]: 10 µM
Compound: N=C(N)c1ccc(N2CC(CC(=O)NCc3ccccc3C(F)(F)F)OC2=O)cc1 (centres unmarked) [Compound 6]
